BindingDB's records for doi:10.1021/jm0704595 (University of Turin, 2007)
“And” between values parts separate entries of the source, which are not always exact repeats. Equal entries are not always repeated.

Test: Agonist activity at adrenergic beta2 receptor in guinea pig tracheal rings assessed as myorelaxing activity on carbachol-induced contraction in presence of propranolol

## Cc1c(COc2ccc(CC(C)NCC(O)c3cc(O)cc(O)c3)cc2)no[n+]1[O-] (stereo unspecified) [5-(1-hydroxy-2-{1-methyl-2-[4-(4-methyl-5-oxy-furazan-3-ylmethoxy)-phenyl]-ethylamino}-ethyl)-benzene-1,3-diol]
  EC50: 55 µM and 54 µM
